According to PMC12864978, “Covalent modification of a glutamic acid inspired by HaloTag technology” (Nature Communications, 2026):

Key:
BxPC-3 cells = assay: Real-time cell analysis (Incucyte) of proliferation; assay type: cell-based, human; details: Homo sapiens, 72 h, read-out: cellular IC50
Description: (§1) Real-time cell analysis (RTCA) was conducted using an Incucyte S3 live-cell analysis system (Sartorius AG, Germany). […] Following attachment overnight, the medium was replaced with fresh medium containing test compounds, with all conditions adjusted to contain 0.5% DMSO. […] Phase-contrast images (2 images per well) were automatically captured at 2-h intervals until control wells (DMSO-treated) reached full confluency. Cell growth was quantified using the instrument’s integrated Basic Analyser module by applying a confluence mask to calculate the percentage of phase area confluence. […] Dose-response curves were generated and fitted via four-parameter variable slope nonlinear regression to determine cellular IC₅₀ values.

MIA PaCa-2 cells = assay: as above; assay type: cell-based, human
Description: as §1

NCI-H358 cells = assay: as above; assay type: cell-based, human; details: Homo sapiens, NCI-H358, 72 h, NCI-H358; 72 h; read-out: cellular IC50
Description: as §1

PA-TU-8902 cells = assay: as above; assay type: cell-based, human
Description: as §1

SW480 cells = assay: as above; assay type: cell-based, human; details: Homo sapiens, 72 h, read-out: cellular IC50
Description: as §1

[1] = target: PDEδ in Jurkat cell lysates (Homo sapiens, UniProt O43924); assay: In-lysate CETSA (immunoblot readout); assay type: binding; set-up: host or cells: Jurkat
Sequence of PDEδ in Jurkat cell lysates (O43924 whole entry): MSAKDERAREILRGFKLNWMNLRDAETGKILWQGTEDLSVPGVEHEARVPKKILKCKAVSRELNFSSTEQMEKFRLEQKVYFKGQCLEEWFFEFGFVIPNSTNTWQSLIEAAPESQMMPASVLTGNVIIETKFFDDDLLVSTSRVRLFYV
Description: A 100 ml aliquot of the suspension was divided equally into two Falcon tubes and chilled on ice for 2 min. Cells were pelleted by centrifugation at 350×g for 3 min at room temperature. After discarding the supernatant, the combined pellet was resuspended in 25 ml of ice-cold PBS buffer. The washing step-centrifugation at 350×g for 2 min at room temperature, followed by supernatant removal-was further repeated twice. […] The resulting lysate was separated by ultracentrifugation at 100,000×g for 20 min at 4 °C (Beckman Coulter Optima MAX-XP, MLA-80 rotor). The supernatant was carefully collected, snap-frozen in liquid nitrogen, and stored at -80 °C for subsequent analysis. Protein concentration was quantified using the Bradford protein assay. […] Following incubation, each aliquot was further subdivided into nine 120 μl portions in PCR tubes. […] For analysis, 75 μl of each supernatant was allocated for mass spectrometry-based thermal protein profiling (TPP), while the remaining 25 μl was used for immunoblotting to assess PDEδ levels. […] DMSO alone. […] Following incubation, each aliquot was further subdivided into nine 120 μl portions in PCR tubes. […] Mass spectrometry-based readout of CETSA For the mass spectrometry-based readout samples were reduced, alkylated, precipitated with acetone and tryptic digested. […]

[2] = target: Jurkat cell lysate proteome (Homo sapiens, UniProt O43924); assay: In-lysate thermal proteome profiling (TPP); details: 10 µM, 15 min
Sequence of Jurkat cell lysate proteome (Homo sapiens, UniProt O43924) (O43924 whole entry): as above
Description: (§2) Jurkat cells were grown to a density of 1.0–2.5 × 10⁶ cells/ml. A 100 ml aliquot of the suspension was divided equally into two Falcon tubes and chilled on ice for 2 min. Cells were pelleted by centrifugation at 350×g for 3 min at room temperature. After discarding the supernatant, the combined pellet was resuspended in 25 ml of ice-cold PBS buffer. The washing step—centrifugation at 350×g for 2 min at room temperature, followed by supernatant removal—was further repeated twice. Following the final wash, the cell pellet was resuspended in 1.5 ml of PBS containing 0.4% (v/v) NP40 alternative and flash-frozen in liquid nitrogen. […] The resulting lysate was separated by ultracentrifugation at 100,000×g for 20 min at 4 °C (Beckman Coulter Optima MAX-XP, MLA-80 rotor). The supernatant was carefully collected, snap-frozen in liquid nitrogen, and stored at −80 °C for subsequent analysis.
(§3) Protein concentration was quantified using the Bradford protein assay. […] Following incubation, each aliquot was further subdivided into nine 120 µl portions in PCR tubes. […] For analysis, 75 µl of each supernatant was allocated for mass spectrometry-based thermal protein profiling (TPP), while the remaining 25 µl was used for immunoblotting to assess PDEδ levels.
(§4) For mass spectrometric analysis, sample processing was further proceeded with reduction and alkylation, followed by acetone precipitation and tryptic digestion. Each digested aliquot was then labelled with isobaric TMT reagents (Thermo Fisher Scientific, A52047) corresponding to its specific temperature condition from the thermal shift assay.
(§5) Proteins were considered as stabilised or destabilised when, in all three replicates,
(§6) tailed p-values were determined by applying paired t-test comparing AUC of melting curves
(§7) between DMSO-treated and compound-treated conditions, OR
(§8) least ± 10 % (same direction) compared to the DMSO control.

[3] = target: Jurkat cell lysate proteome (Homo sapiens, UniProt O75044); assay: In-lysate thermal proteome profiling (TPP)
Description: as §2, §3, §4, §5, §6, §7, §8

[4] = target: Jurkat cell lysate proteome (Homo sapiens, UniProt P07195); assay: In-lysate thermal proteome profiling (TPP)
Sequence of Jurkat cell lysate proteome (Homo sapiens, UniProt P07195) (P07195 whole entry): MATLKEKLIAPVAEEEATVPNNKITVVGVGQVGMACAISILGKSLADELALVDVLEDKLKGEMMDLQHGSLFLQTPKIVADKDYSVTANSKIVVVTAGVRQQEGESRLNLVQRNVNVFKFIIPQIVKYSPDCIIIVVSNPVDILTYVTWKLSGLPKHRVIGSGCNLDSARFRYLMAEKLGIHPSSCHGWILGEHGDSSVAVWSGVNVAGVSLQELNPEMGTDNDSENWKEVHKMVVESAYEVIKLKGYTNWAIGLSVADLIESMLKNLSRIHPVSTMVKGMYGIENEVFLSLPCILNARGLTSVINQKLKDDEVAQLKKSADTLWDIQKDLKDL
Description: as §2, §3, §4, §5, §6, §7, §8

[5] = target: T1, Jurkat cell lysate proteome (Homo sapiens, UniProt P22087); assay: In-lysate thermal proteome profiling (TPP)
T1 sequence (P22087 1-321): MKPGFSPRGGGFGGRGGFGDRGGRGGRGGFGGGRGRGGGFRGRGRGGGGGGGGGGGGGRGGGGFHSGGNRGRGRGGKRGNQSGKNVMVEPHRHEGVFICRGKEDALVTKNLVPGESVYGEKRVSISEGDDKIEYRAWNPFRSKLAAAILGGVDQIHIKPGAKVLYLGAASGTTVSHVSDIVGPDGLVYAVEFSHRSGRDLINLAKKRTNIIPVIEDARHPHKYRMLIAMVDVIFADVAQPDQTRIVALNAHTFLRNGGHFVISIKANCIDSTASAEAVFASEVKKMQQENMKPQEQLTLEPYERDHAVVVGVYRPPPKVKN
Description: as §2, §3, §4, §5, §6, §7, §8

[6] = target: T2, Jurkat cell lysate proteome (Homo sapiens, UniProt P24666); assay: In-lysate thermal proteome profiling (TPP)
T2 sequence (P24666 1-158): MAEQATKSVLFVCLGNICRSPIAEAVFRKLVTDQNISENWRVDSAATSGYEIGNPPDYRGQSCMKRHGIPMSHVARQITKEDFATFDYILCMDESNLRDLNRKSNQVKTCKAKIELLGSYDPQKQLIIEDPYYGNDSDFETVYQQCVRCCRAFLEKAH
Description: as §2, §3, §4, §5, §6, §7, §8

[7] = target: Jurkat cell lysate proteome (Homo sapiens, UniProt P37802); assay: In-lysate thermal proteome profiling (TPP)
Sequence of Jurkat cell lysate proteome (Homo sapiens, UniProt P37802) (P37802 whole entry): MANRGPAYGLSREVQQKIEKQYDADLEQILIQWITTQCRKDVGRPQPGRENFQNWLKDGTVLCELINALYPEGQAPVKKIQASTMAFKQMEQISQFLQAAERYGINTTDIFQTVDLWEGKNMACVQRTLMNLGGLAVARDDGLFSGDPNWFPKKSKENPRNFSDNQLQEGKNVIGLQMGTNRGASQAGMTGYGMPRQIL
Description: as §2, §3, §4, §5, §6, §7, §8

[8] = target: Jurkat cell lysate proteome (Homo sapiens, UniProt P62899); assay: In-lysate thermal proteome profiling (TPP)
Description: as §2, §3, §4, §5, §6, §7, §8

PDEδ = PDEδ (Homo sapiens, UniProt O43924); assay: Mass spectrometry analysis of PDEδ adducts after Glu-C digestion; assay type: binding; set-up: His tag; made in house; host or cells: Escherichia coli Rosetta (BL21DE3), pET plasmids; details: LC-MS/MS, 10:1 compound to protein
Sequence of PDEδ (O43924 whole entry): as the sequence (O43924 whole entry) above
Description: For each replicate, 1.5 µg covalent adduct of PDEδ sample in PBS buffer was denatured, reduced, alkylated and digested by Glu-C and desalted, together with a negative control of unbound vehicle-treated PDEδ sample prior to mass spectrometry analysis. […] The final mixture containing 6.5 M guanidine hydrochloride was heated at 95 °C for 15 min. Subsequently, after cooling, 0.5 µl of a 50 mM dithiothreitol (DTT, cas 3483-12-3, Gerbu Biotechnik, #1008-100 g) solution was added. […] . Samples were incubated at 37 °C overnight with shaking at 400 rpm, protected from light. […] Desalting was carried out with stage tips with C18 extraction discs (Empore^TM high performance extraction discs, 47 mm, 3 M Bioanalytical Technologies #2215). Each stage tip, which consists of two stacked layers of C18 discs, was activated with methanol (100 µl), washed once with buffer B (100 µl, 0.1% formic acid, 80% acetonitrile), and twice with buffer A (100 µl/time, 0.1% formic acid). After sample loading and washing with buffer A once, the desalted sample was eluted with buffer B (20 µl/sample) and centrifuged at 500×g at room temperature for 5 min. Eluted samples were then dried in a SpeedVac at 30 °C.
Data evaluation was performed using MaxQuant software (v.2.2.0.0)[52]. […] Cleavages by Glu-C were analysed based on the enzyme that was used for digestion. […]

Cc1ccc(-n2nc3c(=O)n(CCCCS(=O)(=O)N(CCc4cccc(CCBr)c4)CC4CCNCC4)nc(C)c3c2C)cc1 [6a]
IC50 (BxPC-3 cells): 20 ± 1.3 µM
% Growth rate of MIA PaCa-2 cells (MIA PaCa-2 cells; 25 µM): 15%
% Growth rate of MIA PaCa-2 cells (MIA PaCa-2 cells; 50 µM): 15%
IC50 (MIA PaCa-2 cells; Homo sapiens, MIA PaCa-2, 72 h, read-out: cellular IC50): 7 ± 0.4 µM
difference in cellular potency vs Deltazinone 1 (MIA PaCa-2 cells; MIA PaCa-2): > 7 fold
IC50 (NCI-H358 cells): 6.3 ± 3.5 µM
% Growth rate of PA-TU-8902 cells (PA-TU-8902 cells; 25 µM): 16%
% Growth rate of PA-TU-8902 cells (PA-TU-8902 cells; 50 µM): 26%
IC50 (PA-TU-8902 cells; Homo sapiens, PaTu 8902, PA-TU-8902, 72 h, read-out: cellular IC50): 6.8 ± 0.5 µM
IC50 (SW480 cells): 18.6 ± 3 µM
ΔTm at 10 µM ([1]; 15 min at 37 °C): 11.8 ± 0.2 °C
ΔTm at 10 µM ([1]; 2 h at 37 °C): 22.1 ± 1 °C
ΔI67°C PDE6D [2]: 21 ± 7%
ΔAUC SRGAP2 ([3]; 10 µM, 15 min): -2.5
ΔI67°C SRGAP2 ([3]; 10 µM, 15 min): -10 ± 7%
ΔAUC SRGAP2 ([3]; 10 µM, 15 min, listed as DeltaTag): −2.5
ΔTm at 10 µM ([3]; read-out: ΔTm SRGAP2, 10 µM, 15 min): -1.3 ± 1.1 °C
ΔAUC LDHB ([4]; 10 µM, 15 min): -1.8
ΔI67°C LDHB ([4]; 10 µM, 15 min): -1 ± 4%
ΔTm at 10 µM ([4]; read-out: ΔTm LDHB, 10 µM, 15 min): -2.9 ± 0.7 °C
ΔAUC FBL ([5]; 10 µM, 15 min): -1.8
ΔI67°C FBL ([5]; 10 µM, 15 min): -1 ± 2%
ΔTm at 10 µM ([5]; read-out: ΔTm FBL, 10 µM, 15 min): -1.8 ± 1.1 °C
ΔAUC ACP1 ([6]; 10 µM, 15 min): 2.1
ΔI67°C ACP1 ([6]; 10 µM, 15 min): 0 ± 4%
ΔTm at 10 µM ([6]; read-out: ΔTm ACP1, 10 µM, 15 min): 2.3 ± 0.3 °C
ΔAUC TAGLN2 ([7]; 10 µM, 15 min): 1.4
ΔI67°C TAGLN2 ([7]; 10 µM, 15 min): -5 ± 9%
ΔTm at 10 µM ([7]; read-out: ΔTm TAGLN2, 10 µM, 15 min): 2.8 ± 0.7 °C
ΔAUC RPL31 ([8]; 10 µM, 15 min): -2.5
ΔI67°C RPL31 ([8]; 10 µM, 15 min): -6 ± 5%
ΔTm at 10 µM ([8]; read-out: ΔTm RPL31, 10 µM, 15 min): -2.1 ± 0.6 °C
site of covalent modification in PDEδ (PDEδ): either at p.E88 or p.E89
